# Test results published in ChEMBL document CHEMBL1148181, “Anti-AIDS agents, 9. Suberosol, a new C31 lanostane-type triterpene and anti-HIV principle from Polyalthia suberosa” (J Nat Prod, 1993).
# How the values were obtained:
# [1] = system: Human immunodeficiency virus 1; test: Antiviral activity against HIV1 3B in human H9 lymphocytes after 3 days by p24 antigen capture assay; type: functional, organism-based; conditions: Human immunodeficiency virus 1, 3B, 72 h
# [2] = system: H9; test: Cytotoxicity against human H9 lymphocytes; type: cell-based
structure (smiles),measurement,setting,value
C=C(CC[C@@H](C)[C@H]1C[C@H](O)[C@@]2(C)C3=CC[C@H]4C(C)(C)[C@@H](O)CC[C@]4(C)C3=CC[C@]12C)C(C)C [SUBEROSOL],EC50,[1],3 µg/mL
same,IC50,[2],20 µg/mL
